{
  "source": "patent US20240066003A1",
  "about": "“NEURODEVELOPMENTAL DISORDER THERAPY” (Anavex Life Sciences Corp., priority 2016, published 2024)",
  "key": {"sigma-1 receptors": {"target": "sigma-1 receptors (Homo sapiens, UniProt Q99720)", "sequence (Q99720 whole entry)": "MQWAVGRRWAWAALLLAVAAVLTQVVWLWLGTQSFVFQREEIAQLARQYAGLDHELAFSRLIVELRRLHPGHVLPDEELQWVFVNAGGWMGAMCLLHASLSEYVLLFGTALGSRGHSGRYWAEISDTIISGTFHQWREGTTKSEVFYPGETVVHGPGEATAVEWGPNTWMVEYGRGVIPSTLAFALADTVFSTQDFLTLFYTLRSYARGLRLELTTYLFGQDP", "details": "believed to bind; cited from earlier work"}, "Rett syndrome [1]": {"tested_on": "Rett syndrome", "assay": "Example 3 seizure reduction in Rett syndrome patient", "assay_type": "in vivo, human", "details": "oral 2 mg daily, after 5 days, 6 to 10 seizures per day before therapy", "protocol": "A person presents with Rett syndrome. They experience 6 to 10 seizures per day prior to commencing therapy. They begin treatment with oral doses of A2-73 at 2 mg daily. After 5 days of treatment, the number of daily seizures is reduced to 3 or fewer."}, "[2]": {"tested_on": "heterozygous MECP2knockout mice (HET)", "assay": "Rotarod", "assay_type": "in vivo", "protocol": "Studies employed wild type (WT) mice and heterozygous MECP2knockout mice (HET) All mice were provided by Jackson Laboratory, Bar Harbor, Maine. HET mice were Bird mice (Jackson Laboratories, Bar Harbor, ME, B6.129P2(C)-Mecp2^tm1.1Bird/Stock Number: 003890) were obtained by crossing het females with wild type (WT) males (C57B/6J). […] Mecp2 females testing at ˜8 and ˜12 weeks of age WT—vehicle (0.25% MC/dH2O) HET—vehicle (0.25% MC/dH2O) HET—A2-733 (10 mg/kg) HET—A2-733 (30 mg/kg) Chronic dosing (p.o.) daily, starting at ˜5.5 weeks of age and continuing through the 12-week behavioral testing time point 60 min pre-treatment during behavioral testing. The rotarod performance test is a performance test based on a rotating rod with forced motor activity being applied, usually by a rodent. The test measures parameters such as riding time (seconds) or endurance. Some of the functions of the test include evaluating balance, grip strength, and motor coordination of the subjects; especially in testing the effect of experimental drugs or after traumatic brain injury. Mice are placed on the rotarod apparatus (PsychoGenics, Tarrytown New York) consisting of a rod that rotates at a constant or variable and accelerating speed of 4 rpm. Once a mouse loses its balance and falls onto an underlying platform the timer automatically stops. Mice are exposed to the apparatus for 5 min training at a constant speed and placed back on the rod after each fall. After a rest period of at least 1 hr. animals are placed back on the rotarod apparatus for testing. Once all animals in a test session are loaded on the rod, the rotarod apparatus is placed on accelerating speed (0-40 rpm) over 5 min and the time until the first fall is recorded. The test is repeated three consecutive times per animal. For each test session, the RPM score at time of fall off the rod are recorded."}, "[3]": {"tested_on": "amyloid β25-35 peptide (Aβ25-35) injected mice", "details": "cited from earlier work"}, "Rett syndrome [4]": {"tested_on": "Rett syndrome", "assay": "Example 1 breathing variability in Rett syndrome patient", "assay_type": "in vivo, human", "details": "person, oral 4 mg daily for 10 days", "protocol": "A person presenting with Rett syndrome is administered oral doses of A2-73 at 4 mg daily for 10 days. On presentation, their breathing is abnormal. Their mean breaths per minute is calculated to assess breathing variability."}, "[5]": {"tested_on": "relapsing-remitting multiple sclerosis", "assay": "Example 9 gadolinium-enhancing MRI lesions in relapsing-remitting multiple sclerosis patient", "assay_type": "in vivo, human", "details": "person, oral 30 mg every other day for 3 months, up to month 6", "protocol": "A person presents with relapsing-remitting multiple sclerosis. They begin treatment with oral doses of A2-73 at 30 mg every other day for 3 months."}, "Williams syndrome": {"tested_on": "Williams syndrome", "assay": "Example 6 weight gain in Williams syndrome patient", "assay_type": "in vivo, human", "details": "person, i.v. 5 mg every other day, after 60 days", "protocol": "A person presents with Williams syndrome. […] They begin treatment with i.v. doses of A2-73 at 5 mg every other day."}, "[6]": {"assay": "Body weight of Mecp2 HET mice under chronic dosing", "assay_type": "in vivo", "details": "30 mg/kg p.o. daily, 6.5 weeks after dosing began; Treatment×Age effect p<0.001", "protocol": "Studies employed wild type (WT) mice and heterozygous MECP2knockout mice (HET) All mice were provided by Jackson Laboratory, Bar Harbor, Maine. HET mice were Bird mice (Jackson Laboratories, Bar Harbor, ME, B6.129P2(C)-Mecp2^tm1.1Bird/Stock Number: 003890) were obtained by crossing het females with wild type (WT) males (C57B/6J). […] Mecp2 females testing at ˜8 and ˜12 weeks of age WT—vehicle (0.25% MC/dH2O) HET—vehicle (0.25% MC/dH2O) HET—A2-733 (10 mg/kg) HET—A2-733 (30 mg/kg) Chronic dosing (p.o.) daily, starting at ˜5.5 weeks of age and continuing through the 12-week behavioral testing time point 60 min pre-treatment during behavioral testing. […] FIG. 1 There was a significant Treatment×Age effect (p<0.001), where mice treated with A2-733 (30 mg/kg) weighed less than vehicle-treated mutant mice 6.5 weeks after dosing began."}, "[7]": {"details": "8 weeks of age, 10 and 30 mg/kg p.o. daily, HET mice"}, "[8]": {"details": "12 weeks of age, both doses (10 and 30 mg/kg p.o. daily)"}},
  "data": [
    {"smiles": "CN(C)CC1CCOC1(c1ccccc1)c1ccccc1.Cl", "note": "(stereo not drawn) [A2-73, tetrahydro-N,N-dimethyl-2,2-diphenyl-3-furanmethanamine hydrochloride]", "values": [
      {"measurement": "affinity for sigma-1 receptors", "setting": "sigma-1 receptors", "value": "low micromolar range"},
      {"measurement": "number of daily seizures", "setting": "Rett syndrome [1]", "value": "≤ 3"},
      {"measurement": "rotarod speed at fall, treatment effect", "setting": "[2]; [7]", "value": "No significant treatment effects"},
      {"measurement": "rotarod time to fall, treatment effect", "setting": "[2]; [7]", "value": "No significant treatment effects"},
      {"measurement": "rotarod speed at fall vs vehicle-treated mutant mice", "setting": "[2]; [8]", "value": "fell at higher speeds"},
      {"measurement": "rotarod time to fall vs vehicle-treated mutant mice", "setting": "[2]; [8]", "value": "took more time to fall off the rod"},
      {"measurement": "rotarod speed at fall, without outliers", "setting": "[2]; 12 weeks of age, higher dose (30 mg/kg), outliers removed", "value": "effect at the higher dose disappeared"},
      {"measurement": "Aβ25-35-induced P-Akt decrease and P-GSK-3β increase", "setting": "[3]; Lahmy et al. 2013", "value": "blocked"},
      {"measurement": "hyperphosphorylation of Tau on physiological (AT-8) and pathological (AT-100) epitopes", "setting": "[3]; in the dose-range tested", "value": "attenuated"},
      {"measurement": "oxidative stress, caspases induction, cellular loss and learning and memory deficits", "setting": "[3]; mice one week after the i.v. injection of oligomeric Aβ25-35 (Villard et al. 2011)", "value": "attenuating"},
      {"measurement": "Aβ25-35-induced endogenous Aβ1-42 seeding", "setting": "[3]; mouse, in vivo", "value": "decreasing"},
      {"measurement": "breathing variability (breaths/minute)", "setting": "Rett syndrome [4]", "value": "significantly reduced"},
      {"measurement": "number of total gadolinium-enhancing lesions on monthly brain MRI", "setting": "[5]", "value": "significantly lower number"},
      {"measurement": "weight gain", "setting": "Williams syndrome", "value": 10, "unit": "%"},
      {"measurement": "body weight vs vehicle-treated mutant mice", "setting": "[6]", "value": "weighed less"}
    ]}
  ]
}
